Test results published in patent US20220168427A1 (Ranok Therapeutics (Hangzhou) Co. Ltd., priority 2019, published 2022).
pIC50: −log10 of the molar value.

How the values were obtained:
HSP90α = HSP90α (Homo sapiens, UniProt P07900); experiment: HSP90α Binding Fluorescent Polarization (FP) Assay; details: competition with FITC-geldanamycin; read-out: HSP90 Binding Potency
Method in brief: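 Competitive FP assay in which compound displaces FITC-geldanamycin from recombinant HSP90α (28 μg/ml before addition) in BSA-containing buffer. Compounds in 3-fold series from 40 μM to 2.0 nM (dilution-plate concentrations), tested in duplicate. Readings after 30, 60 and 120 min at 25 °C; background-subtracted mP fitted to four-parameter log[inhibitor]-response curve.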

BRD4 (BD1+BD2) = molecular target: T1, BRD4 (BD1+BD2) (Homo sapiens, UniProt O60885); details: read-out: BRD4 Binding Potency
T1 construct: 1.8 μg/ml recombinant BRD4 (BD1+BD2 domains) protein

SU-DHL-4 xenograft = experiment: SU-DHL-4 DLBCL tumor xenograft study in mice
Description: Tumor Xenograft Studies in Mice
5×10^6 MV-4-11 or 1×10^7 SU-DHL-4 cells were collected and re-suspended in 0.1 mL of serum-free media with Matrigel (1:1 v/v) per mouse for subcutaneous inoculation in isoflurane anesthetized male BALB/c nude or C.B-17 scid mice, respectively (treated in accordance with AAALAC animal welfare guidelines). When the average tumor volumes reached 100-200 mm^3, tumor volume outliers were removed and the remaining animals randomly divided into groups of 6-8 with similar average tumor volumes in each group. […] Animals were intravenously dosed at 25 mg/kg, 50 mg/kg or 100 mg/kg 1×/week for 3 or 4 weeks. The appearance and behavior of each mouse was observed and recorded daily. Body weights and tumor volumes were measured and recorded every 2-4 days and the results were expressed as group means±SEM. Pairwise statistical comparisons between groups were performed by one-way ANOVA, and p<0.05 was considered statistically significant.

MV4-11 cells = experiment: MV4-11 Cell Cytotoxicity Assay; assay type: cell-based, human; details: CCK-8; for IC50 at 72 h: human, MV4-11 cells; for pIC50: 72 hr
Excerpt: % Inhibition=100−(D−B)/(S−B)*100%.
S: The absorbance of the maximum (cells with DMSO)
B: The absorbance of the minimum (medium with DMSO)

[1] = 100 mg/kg intravenously 1×/week, after 4 weeks of dosing

Molecule | pIC50 (HSP90α) | pIC50 (BRD4 (BD1+BD2)) | tumor growth inhibition (SU-DHL-4 xenograft; [1]) | tumor vs control (T/C) value (SU-DHL-4 xenograft; [1]) | animal deaths and body weights (SU-DHL-4 xenograft; any dose level) | IC50 at 72 h (MV4-11 cells) | pIC50 (MV4-11 cells)
CCc1cc(-c2nnc(C(=O)NCC(F)(F)F)n2-c2ccc(CN3CCN(CC4CCN(C(=O)C[C@@H]5N=C(c6ccc(Cl)cc6)c6c(sc(C)c6C)-n6c(C)nnc65)CC4)CC3)cc2)c(O)cc1O.Cl [Compound 78, 4-(4-((4-((1-(2-((6S)-4-(4-chlorophenyl)-2,3,9-trimethyl-6H-thieno[3,2-f][1,2,4]triazolo[4,3-a][1,4]diazepin-6-yl)acetyl)piperidin-4-yl)methyl)piperazin-1-yl)methyl)phenyl)-5-(5-ethyl-2,4-dihydroxyphenyl)-N-(2,2,2-trifluoroethyl)-4H-1,2,4-triazole-3-carboxamide hydrochloride] | 6.00 to 7.00 | 6.00 to 7.00 | significant tumor growth inhibition | 28% | No animal deaths or significant effects on body weights were observed | – | –
Cc1sc2c(c1C)C(c1ccc(Cl)cc1)=N[C@@H](CC(=O)N1CCC(CCN[C@@H](C)C(=O)N[C@H](C(=O)N3CCC[C@H]3C(=O)Nc3snnc3-c3ccccc3)C3CCCCC3)CC1)c1nnc(C)n1-2 [Compound 130, (S)-1-((S)-2-((S)-2-((2-(1-(2-((S)-4-(4-chlorophenyl)-2,3,9-trimethyl-6H-thieno[3,2-f][1,2,4]triazolo[4,3-a][1,4]diazepin-6-yl)acetyl)piperidin-4-yl)ethyl)amino)propanamido)-2-cyclohexylacetyl)-N-(4-phenyl-1,2,3-thiadiazol-5-yl)pyrrolidine-2-carboxamide] | < 6.00 | 6.00 to 7.00 | – | – | – | 100 to 1000 nM | –
COc1cccc(-c2cc(C(=O)Nc3ccc(-c4ccc(OC5CCN(CC[C@@H]6N=C(c7ccc(Cl)cc7)c7c(sc(C)c7C)-n7c(C)nnc76)CC5)cc4O)cc3)ccc2OC)c1 [Compound 132] | < 6.00 | < 6.00 | – | – | – | > 1000 nM | –
COc1cccc(-c2cc(C(=O)Nc3ccc(-c4ccc(OC5CCN(C(=O)CNC(=O)C[C@@H]6N=C(c7ccc(Cl)cc7)c7c(sc(C)c7C)-n7c(C)nnc76)CC5)cc4O)cc3)ccc2OC)c1 [Compound 134] | < 6.00 | < 6.00 | – | – | – | > 1000 nM | –
COc1cccc(-c2cc(C(=O)Nc3ccc(-c4ccc(OC5CCN(C)CC5)cc4OCCN(C)CC[C@@H]4N=C(c5ccc(Cl)cc5)c5c(sc(C)c5C)-n5c(C)nnc54)cc3)ccc2OC)c1 [Compound 135] | < 6.00 | 6.00 to 7.00 | – | – | – | 100 to 1000 nM | –
COc1cccc(-c2cc(C(=O)Nc3ccc(-c4ccc(OC5CCN(C)CC5)cc4OCCN(C)C(=O)C[C@@H]4N=C(c5ccc(Cl)cc5)c5c(sc(C)c5C)-n5c(C)nnc54)cc3)ccc2OC)c1 [Compound 136] | < 6.00 | 6.00 to 7.00 | – | – | – | 100 to 1000 nM | –
COc1cccc(-c2cc(C(=O)Nc3ccc(-c4ccc(OC5CCN(C(=O)CNC(=O)C[C@@H]6N=C(c7ccc(Cl)cc7)c7c(sc(C)c7C)-n7c(C)nnc76)CC5)cc4OCCN(C)C)cc3)ccc2OC)c1 [Compound 138] | < 6.00 | > 7.00 | – | – | – | < 100 nM | –
COc1cccc(-c2cc(C(=O)Nc3ccc(-c4ccc(OC5CCN(CC[C@@H]6N=C(c7ccc(Cl)cc7)c7c(sc(C)c7C)-n7c(C)nnc76)CC5)cc4OCCN(C)C)cc3)ccc2OC)c1 [Compound 139, (S)—N-(4′-((1-(2-(4-(4-chlorophenyl)-2,3,9-trimethyl-6H-thieno[3,2-f][1,2,4]triazolo[4,3-a][1,4]diazepin-6-yl)ethyl)piperidin-4-yl)oxy)-2′-(2-(dimethylamino)ethoxy)-[1,1′-biphenyl]-4-yl)-3′,6-dimethoxy-[1,1′-biphenyl]-3-carboxamide] | < 6.00 | 6.00 to 7.00 | – | – | – | – | 6.00 to 7.00
COc1cccc(-c2cc(C(=O)Nc3ccc(-c4ccc(OC5CCN(CC[C@@H]6N=C(c7ccc(Cl)cc7)c7c(sc(C)c7C)-n7c(C)nnc76)CC5)cc4OCCN(C)C)cc3)ccc2OC)c1 [Compound 140] | < 6.00 | < 6.00 | – | – | – | – | < 6.00
Cc1sc2c(c1C)C(c1ccc(Cl)cc1)=N[C@@H](CC(=O)N1CCN(Cc3ccc4c(c3)CN(C(=O)c3cc(C(C)C)c(O)cc3O)C4)CC1)c1nnc(C)n1-2 [Compound 141, (S)-2-(4-(4-chlorophenyl)-2,3,9-trimethyl-6H-thieno[3,2-f][1,2,4]triazolo[4,3-a][1,4]diazepin-6-yl)-1-(4-((2-(2,4-dihydroxy-5-isopropylbenzoyl)isoindolin-5-yl)methyl)piperazin-1-yl)ethan-1-one] | 6.00 to 7.00 | 6.00 to 7.00 | – | – | – | 100 to 1000 nM | –
CCc1cc(C(=O)N2Cc3ccc(CN4CCN(C(=O)C[C@@H]5N=C(c6ccc(Cl)cc6)c6c(sc(C)c6C)-n6c(C)nnc65)CC4)cc3C2)c(O)cc1O [Compound 142, (S)-2-(4-(4-chlorophenyl)-2,3,9-trimethyl-6H-thieno[3,2-f][1,2,4]triazolo[4,3-a][1,4]diazepin-6-yl)-1-(4-((2-(5-ethyl-2,4-dihydroxybenzoyl)isoindolin-5-yl)methyl)piperazin-1-yl)ethan-1-one] | 6.00 to 7.00 | 6.00 to 7.00 | – | – | – | 100 to 1000 nM | –
Cc1sc2c(c1C)C(c1ccc(Cl)cc1)=N[C@@H](CC(=O)N1CCN(Cc3ccc4c(c3)CN(C(=O)c3ccc(O)cc3O)C4)CC1)c1nnc(C)n1-2 [Compound 143, (S)-2-(4-(4-chlorophenyl)-2,3,9-trimethyl-6H-thieno[3,2-f][1,2,4]triazolo[4,3-a][1,4]diazepin-6-yl)-1-(4-((2-(2,4-dihydroxybenzoyl)isoindolin-5-yl)methyl)piperazin-1-yl)ethan-1-one] | 6.00 to 7.00 | < 6.00 | – | – | – | > 1000 nM | –
Cc1cc(C(=O)N2Cc3ccc(CN4CCN(C(=O)C[C@@H]5N=C(c6ccc(Cl)cc6)c6c(sc(C)c6C)-n6c(C)nnc65)CC4)cc3C2)c(O)cc1O [Compound 144, (S)-2-(4-(4-chlorophenyl)-2,3,9-trimethyl-6H-thieno[3,2-f][1,2,4]triazolo[4,3-a][1,4]diazepin-6-yl)-1-(4-((2-(2,4-dihydroxy-5-methylbenzoyl)isoindolin-5-yl)methyl)piperazin-1-yl)ethan-1-one] | 6.00 to 7.00 | 6.00 to 7.00 | – | – | – | 100 to 1000 nM | –
CCCc1cc(C(=O)N2Cc3ccc(CN4CCN(C(=O)C[C@@H]5N=C(c6ccc(Cl)cc6)c6c(sc(C)c6C)-n6c(C)nnc65)CC4)cc3C2)c(O)cc1O [Compound 145, (S)-2-(4-(4-chlorophenyl)-2,3,9-trimethyl-6H-thieno[3,2-f][1,2,4]triazolo[4,3-a][1,4]diazepin-6-yl)-1-(4-((2-(2,4-dihydroxy-5-propylbenzoyl)isoindolin-5-yl)methyl)piperazin-1-yl)ethan-1-one] | 6.00 to 7.00 | < 6.00 | – | – | – | > 1000 nM | –
(S)—N-(4′-((1-((S)-(2-(4-(4-chlorophenyl)-2,3,9-trimethyl-6H-thieno[3,2-f][1,2,4]triazolo[4,3-a][1,4]diazepin-6-yl)acetyl)glycyl)piperidin-4-yl)oxy)-2′-(2-(dimethylamino)ethoxy)-[1,1′-biphenyl]-4-yl)-3′,6-dimethoxy-[1,1′-biphenyl]-3-carboxamide [Compound 137] | < 6.00 | 6.00 to 7.00 | – | – | – | – | 6.00 to 7.00
(S)—N-(4′-((1-((S)-(2-(4-(4-chlorophenyl)-2,3,9-trimethyl-6H-thieno[3,2-f][1,2,4]triazolo[4,3-a][1,4]diazepin-6-yl)acetyl)glycyl)piperidin-4-yl)oxy)-2′-hydroxy-[1,1′-biphenyl]-4-yl)-3′,6-dimethoxy-[1,1′-biphenyl]-3-carboxamide [Compound 133] | < 6.00 | < 6.00 | – | – | – | – | < 6.00
